Test results as given in patent US5093233A, “Antagonists with position 13 modification” (Merck & Co., Inc., priority 1990, dated 1992).
Square brackets hold non-standard residues; d marks the D form. Peptide text beside a SMILES is read from it. * marks the point of attachment. Hydrocinnamoyl = O=C(CCc1ccccc1)*; Nle = CCCC[C@H](N)C(=O)O; Hexanoyl = CCCCCC(=O)*

Target: T1, PTH receptor, bovine renal cortical plasma membranes (Bos taurus, UniProt Q1LZF7)
T1 construct: from tissue; host or cells: bovine renal cortex (plasma membrane preparation)
T1 sequence (Q1LZF7 29-589): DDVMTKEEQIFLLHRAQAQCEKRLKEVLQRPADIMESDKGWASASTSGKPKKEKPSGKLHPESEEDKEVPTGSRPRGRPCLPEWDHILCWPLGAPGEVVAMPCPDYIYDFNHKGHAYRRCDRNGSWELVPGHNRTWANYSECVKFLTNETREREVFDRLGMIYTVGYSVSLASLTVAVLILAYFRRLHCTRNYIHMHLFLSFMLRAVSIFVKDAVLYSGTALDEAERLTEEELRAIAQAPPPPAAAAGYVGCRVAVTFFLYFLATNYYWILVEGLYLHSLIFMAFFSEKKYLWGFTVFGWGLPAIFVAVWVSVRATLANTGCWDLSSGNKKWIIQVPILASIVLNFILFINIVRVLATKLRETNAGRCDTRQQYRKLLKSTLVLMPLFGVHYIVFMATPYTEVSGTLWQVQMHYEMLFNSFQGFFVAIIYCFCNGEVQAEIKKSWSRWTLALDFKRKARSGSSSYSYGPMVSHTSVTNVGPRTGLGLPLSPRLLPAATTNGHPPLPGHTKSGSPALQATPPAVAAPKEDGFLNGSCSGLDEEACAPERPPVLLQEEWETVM
Assay: PTH binding assay in bovine renal membranes
Conditions: radioligand [Nle8,18,125I-Tyr34]bPTH(1-34)NH2, 30 min at 21° C.
Description: PTH analogues were analyzed in a new receptor assay reported in Goldman et al., Endocrin. 123: 1468-1475 (1988). The binding assay used [Nle^8,18,^125 I-Tyr^34 ]bPTH (1-34)NH2 which was purified by HPLC (Novapak C18, 32-35% CH3 CN in 0.1% TFA) and was stored as aliquots in 25 mM TrisHCl/1%BSA at -70° C. Bovine renal cortical plasma membranes were incubated with radioligand (25,000 cpm) in a Tris-containing buffer (250 ul) for 30 min. at 21° C. Once equilibrium was reached, bound and free radioligand were separated by centrifugation. High specific binding (85%) to bovine renal cortical membranes was obtained consistently.

Kb [nM]	Structure (SMILES)
4 ± 1	CCCCCC(=O)N[C@@H](Cc1c[nH]cn1)C(=O)N[C@@H](CC(N)=O)C(=O)N[C@@H](CC(C)C)C(=O)N[C@H](Cc1c[nH]c2ccccc12)C(=O)N[C@@H](CCCCNC(=O)CCc1ccccc1)C(=O)N[C@@H](Cc1c[nH]cn1)C(=O)N[C@@H](CC(C)C)C(=O)N[C@@H](CO)C(=O)N[C@@H](CO)C(=O)N[C@@H](CCCC)C(=O)N[C@@H](CCC(=O)O)C(=O)N[C@@H](CCCNC(=N)N)C(=O)N[C@H](C(=O)N[C@@H](CCC(=O)O)C(=O)N[C@@H](Cc1c[nH]c2ccccc12)C(=O)N[C@@H](CC(C)C)C(=O)N[C@@H](CCCNC(=N)N)C(=O)N[C@@H](CCCCN)C(=O)N[C@@H](CCCCN)C(=O)N[C@@H](CC(C)C)C(=O)N[C@@H](CCC(N)=O)C(=O)N[C@@H](CC(=O)O)C(=O)N[C@H](C(=O)N[C@@H](Cc1c[nH]cn1)C(=O)N[C@@H](CC(N)=O)C(=O)N[C@@H](Cc1ccc(O)cc1)C(N)=O)C(C)C)C(C)C [Structure 2, desamino[Nle^8,18,D-Trp^12,Lys^13 (N^ε --CO(CH2)2 -Phenyl),Tyr^34]bPTH(8-34)NH2] (Hexanoyl-HNL[dW]K(Hydrocinnamoyl)HLSS[Nle]ERVEWLRKKLQDVHNY-NH2)
4 ± 1	CCCC[C@H](NC(=O)[C@H](CO)NC(=O)[C@H](CO)NC(=O)[C@H](CC(C)C)NC(=O)[C@H](Cc1c[nH]cn1)NC(=O)[C@H](CCCCNC(=O)CCc1ccccc1)NC(=O)[C@@H](Cc1c[nH]c2ccccc12)NC(=O)[C@H](CC(C)C)NC(=O)[C@H](CC(N)=O)NC(=O)[C@H](Cc1c[nH]cn1)NC(=O)[C@H](CCCC)NC(=O)[C@@H](N)Cc1ccccc1)C(=O)N[C@@H](CCC(=O)O)C(=O)N[C@@H](CCCNC(=N)N)C(=O)N[C@H](C(=O)N[C@@H](CCC(=O)O)C(=O)N[C@@H](Cc1c[nH]c2ccccc12)C(=O)N[C@@H](CC(C)C)C(=O)N[C@@H](CCCNC(=N)N)C(=O)N[C@@H](CCCCN)C(=O)N[C@@H](CCCCN)C(=O)N[C@@H](CC(C)C)C(=O)N[C@@H](CCC(N)=O)C(=O)N[C@@H](CC(=O)O)C(=O)N[C@H](C(=O)N[C@@H](Cc1c[nH]cn1)C(=O)N[C@@H](CC(N)=O)C(=O)N[C@@H](Cc1ccc(O)cc1)C(N)=O)C(C)C)C(C)C [Structure 3, [Nle^8,18,D-Trp^12,Lys^13 (N^ε --CO(CH2)2 -Phenyl),Tyr^34]bPTH(7-34)NH2]
35 ± 4	CCCC[C@H](NC(=O)[C@H](CO)NC(=O)[C@H](CO)NC(=O)[C@H](CC(C)C)NC(=O)[C@H](Cc1c[nH]cn1)NC(=O)[C@H](CCCCN(CC(C)C)CC(C)C)NC(=O)[C@@H](Cc1c[nH]c2ccccc12)NC(=O)[C@H](CC(C)C)NC(=O)[C@H](CC(N)=O)NC(=O)[C@H](Cc1c[nH]cn1)NC(=O)[C@H](CCCC)NC(=O)[C@@H](N)Cc1ccccc1)C(=O)N[C@@H](CCC(=O)O)C(=O)N[C@@H](CCCNC(=N)N)C(=O)N[C@H](C(=O)N[C@@H](CCC(=O)O)C(=O)N[C@@H](Cc1c[nH]c2ccccc12)C(=O)N[C@@H](CC(C)C)C(=O)N[C@@H](CCCNC(=N)N)C(=O)N[C@@H](CCCCN)C(=O)N[C@@H](CCCCN)C(=O)N[C@@H](CC(C)C)C(=O)N[C@@H](CCC(N)=O)C(=O)N[C@@H](CC(=O)O)C(=O)N[C@H](C(=O)N[C@@H](Cc1c[nH]cn1)C(=O)N[C@@H](CC(N)=O)C(=O)N[C@@H](Cc1ccc(O)cc1)C(N)=O)C(C)C)C(C)C [Structure 4, [Nle^8,18,D-Trp^12,Lys^13 (N^ε,N^ε -diisobutyl),Tyr^34]bPTH(7-34)NH2]
13 ± 2	CCCC[C@H](NC(=O)CCc1ccccc1)C(=O)N[C@@H](Cc1c[nH]cn1)C(=O)N[C@@H](CC(N)=O)C(=O)N[C@@H](CC(C)C)C(=O)N[C@H](Cc1c[nH]c2ccccc12)C(=O)N[C@@H](CCCCNC(=O)CCc1ccccc1)C(=O)N[C@@H](Cc1c[nH]cn1)C(=O)N[C@@H](CC(C)C)C(=O)N[C@@H](CO)C(=O)N[C@@H](CO)C(=O)N[C@@H](CCCC)C(=O)N[C@@H](CCC(=O)O)C(=O)N[C@@H](CCCNC(=N)N)C(=O)N[C@H](C(=O)N[C@@H](CCC(=O)O)C(=O)N[C@@H](Cc1c[nH]c2ccccc12)C(=O)N[C@@H](CC(C)C)C(=O)N[C@@H](CCCNC(=N)N)C(=O)N[C@@H](CCCCN)C(=O)N[C@@H](CCCCN)C(=O)N[C@@H](CC(C)C)C(=O)N[C@@H](CCC(N)=O)C(=O)N[C@@H](CC(=O)O)C(=O)N[C@H](C(=O)N[C@@H](Cc1c[nH]cn1)C(=O)N[C@@H](CC(N)=O)C(=O)N[C@@H](Cc1ccc(O)cc1)C(N)=O)C(C)C)C(C)C [Structure 1, desamino[Nle^8,18,D-Trp^12,Lys^13 (N^ε --CO(CH2)2 -Phenyl),Tyr^34]bPTH(7-34)NH2] (Hydrocinnamoyl-[Nle]HNL[dW]K(Hydrocinnamoyl)HLSS[Nle]ERVEWLRKKLQDVHNY-NH2)
